The record followed here is patent publication US7189718B2, “Non-nucleoside reverse transcriptase inhibitors” (Roche Palo Alto LLC, priority 2003, dated 2007).

The experiment deals with T1, HIV-1 RT (Human immunodeficiency virus type 1 group M subtype B, UniProt P03366).
T1 construct: HIV-1 RT assay was carried out in 96-well Millipore MultiScreen MADVNOB50 plates using purified recombinant enzyme
The experiment in a line: HIV Reverse Transcriptase Assay: Inhibitor IC50 Determination. The experiment is classed as biochemical. As to conditions: purified recombinant enzyme, poly(rA)/oligo(dT)16 template-primer, 4 nM HIV-1 RT, 37° C. for 30 min, 10% DMSO; read-out: RT inhibition IC50. The method, then: HIV Reverse Transcriptase Assay: Inhibitor IC50 Determination
HIV-1 RT assay was carried out in 96-well Millipore MultiScreen MADVNOB50 plates using purified recombinant enzyme and a poly(rA)/oligo(dT)16 template-primer in a total volume of 50 μL. The assay constituents were 50 mM Tris/HCl 50 mM NaCl, 1 mM EDTA, 6 mM MgCl2, 5 μM dTTP, 0.15 μCi [^3H] dTTP, 5 μg/ml poly (rA) pre annealed to 2.5 μg/ml oligo (dT)16 and a range of inhibitor concentrations in a final concentration of 10% DMSO. Reactions were initiated by adding 4 nM HIV-1 RT and after incubation at 37° C. for 30 min, they were stopped by the addition of 50 μl ice cold 20% TCA and allowed to precipitate at 4° C. for 30 min. The precipitates were collected by applying vacuum to the plate and sequentially washing with 3×200 μl of 10% TCA and 2×200 μl 70% ethanol. Finally, the plates were dried and radioactivity counted in a Packard TopCounter after the addition of 25 μl scintillation fluid per well. IC50's, were calculated by plotting % inhibition versus log10 inhibitor concentrations.

In general, IC50 refers to the concentration that gives 50% inhibition. Turning to `CCc1ccc(Cc2ccc(=O)[nH]n2)c(F)c1Oc1cc(Cl)cc(C#N)c1` [I-224, 3-Chloro-5-[6-ethyl-2-fluoro-3-(6-oxo-1,6-dihydro-pyridazin-3-ylmethyl)-phenoxy]-benzonitrile], the half-maximal inhibitory concentration (IC50) amounted to 0.018 µM.
For `Cc1cc(Cc2ccc(Cl)c(Oc3cc(Cl)cc(C#N)c3)c2)n[nH]c1=O` [I-108, 3-Chloro-5-[2-chloro-5-(5-methyl-6-oxo-1,6-dihydro-pyridazin-3-ylmethyl)-phenoxy]-benzonitrile] the value was 0.0111 µM; for `O=c1ccc(Cc2ccc(Cl)c(Oc3cc(Cl)ccc3Cl)c2)n[nH]1` [I-102, 6-[4-Chloro-3-(2,5-dichloro-phenoxy)-benzyl]-2H-pyridazin-3-one], 0.0206 µM; for `CCc1ccc(Cc2cc(C)c(=O)[nH]n2)cc1Oc1cc(Cl)cc(C#N)c1` [I-98, 3-Chloro-5-[2-ethyl-5-(5-methyl-6-oxo-1,6-dihydro-pyridazin-3-ylmethyl)-phenoxy]-benzonitrile], 0.0194 µM.
`Cc1ccc(Cl)cc1Oc1cc(Cc2cc(C)c(=O)[nH]n2)ccc1Cl` [I-123, 6-[4-Chloro-3-(5-chloro-2-methyl-phenoxy)-benzyl]-4-methyl-2H-pyridazin-3-one]: the IC50 stood at 0.0231 µM.
On to `CCc1ccc(Cc2ccc(=O)[nH]n2)cc1Oc1cc(C)cc(C#N)c1` [I-100, 3-[2-Ethyl-5-(6-oxo-1,6-dihydro-ridazin-3-ylmethyl)-phenoxy]-5-methyl-nzonitrile], for which the half-inhibitory concentration (IC50) was 0.0241 µM.
For `Cc1cc(Cc2ccc(Cl)c(Oc3cc(C#N)cc(C(F)F)c3)c2F)n[nH]c1=O` [I-237, 3-[6-Chloro-2-fluoro-3-(5-methyl-6-oxo-1,6-dihydro-pyridazin-3-ylmethyl)-phenoxy]-5-difluoromethyl-benzonitrile] the value was 0.0128 µM; for `O=c1ccc(Cc2cc(Oc3cc(Br)cc(Br)c3)c3occc3c2)n[nH]1` [I-142, 6-[7-(3,5-Dibromo-phenoxy)-benzofuran-5-ylmethyl]-2H-pyridazin-3-one], 0.015 µM; for `O=c1ccc(Cc2ccc(Cl)c(Oc3cc(Cl)ccc3Br)c2F)n[nH]1` [I-136, 6-[3-(2-Bromo-5-chloro-phenoxy)-4-chloro-2-fluoro-benzyl]-2H-pyridazin-3-one], 0.008 µM.
Take `CCc1ccc(Cc2cc(C)c(=O)[nH]n2)cc1Oc1cc(C)cc(C#N)c1` [I-109, 3-[2-Ethyl-5-(5-methyl-6-oxo-1,6-dihydro-yridazin-3-ylmethyl)-phenoxy]-5-methyl-benzonitrile]: the IC50 came to 0.0216 µM.
`Cc1cc(Cc2ccc(Cl)c(Oc3cc(Cl)ccc3Br)c2)n[nH]c1=O` [I-103, 6-[3-(2-Bromo-5-chloro-phenoxy)-4-chloro-benzyl]-4-methyl-2H-pyridazin-3-one]: the half-maximal inhibitory concentration (IC50) turned out to be 0.00935 µM.
Then `Cc1cc(Cc2ccc(Cl)c(Oc3cc(C#N)cc(C#N)c3)c2)n[nH]c1=O` [I-135, 5-[2-Chloro-5-(5-methyl-6-oxo-1,6-dihydro-pyridazin-3-ylmethyl)-phenoxy]-isophthalonitrile], with 0.0125 µM; and `O=c1ccc(Cc2ccc(Cl)c(Oc3cc(Cl)ccc3Br)c2)n[nH]1` [I-77, 6-[3-(2-Bromo-5-chloro-phenoxy)-4-chloro-benzyl]-2H-pyridazin-3-one], with 0.0243 µM.
